# B1: ATP-binding cassette sub-family C member 4 (Homo sapiens) (protein)
# chain: MLPVYQEVKPNPLQDANLCSRVFFWWLNPLFKIGHKRRLEEDDMYSVLPEDRSQHLGEELQGFWDKEVLRAENDAQKPSLTRAIIKCYWKSYLVLGIFTLIEESAKVIQPIFLGKIINYFENYDPMDSVALNTAYAYATVLTFCTLILAILHHLYFYHVQCAGMRLRVAMCHMIYRKALRLSNMAMGKTTTGQIVNLLSNDVNKFDQVTVFLHFLWAGPLQAIAVTALLWMEIGISCLAGMAVLIILLPLQSCFGKLFSSLRSKTATFTDARIRTMNEVITGIRIIKMYAWEKSFSNLITNLRKKEISKILRSSCLRGMNLASFFSASKIIVFVTFTTYVLLGSVITASRVFVAVTLYGAVRLTVTLFFPSAIERVSEAIVSIRRIQTFLLLDEISQRNRQLPSDGKKMVHVQDFTAFWDKASETPTLQGLSFTVRPGELLAVVGPVGAGKSSLLSAVLGELAPSHGLVSVHGRIAYVSQQPWVFSGTLRSNILFGKKYEKERYEKVIKACALKKDLQLLEDGDLTVIGDRGTTLSGGQKARVNLARAVYQDADIYLLDDPLSAVDAEVSRHLFELCICQILHEKITILVTHQLQYLKAASQILILKDGKMVQKGTYTEFLKSGIDFGSLLKKDNEESEQPPVPGTPTLRNRTFSESSVWSQQSSRPSLKDGALESQDTENVPVTLSEENRSEGKVGFQAYKNYFRAGAHWIVFIFLILLNTAAQVAYVLQDWWLSYWANKQSMLNVTVNGGGNVTEKLDLNWYLGIYSGLTVATVLFGIARSLLVFYVLVNSSQTLHNKMFESILKAPVLFFDRNPIGRILNRFSKDIGHLDDLLPLTFLDFIQTLLQVVGVVSVAVAVIPWIAIPLVPLGIIFIFLRRYFLETSRDVKRLESTTRSPVFSHLSSSLQGLWTIRAYKAEERCQELFDAHQDLHSEAWFLFLTTSRWFAVRLDAICAMFVIIVAFGSLILAKTLDAGQVGLALSYALTLMGMFQWCVRQSAEVENMMISVERVIEYTDLEKEAPWEYQKRPPPAWPHEGVIIFDNVNFMYSPGGPLVLKHLTALIKSQEKVGIVGRTGAGKSSLISALFRLSEPEGKIWIDKILTTEIGLHDLRKKMSIIPQEPVLFTGTMRKNLDPFNEHTDEELWNALQEVQLKETIEDLPGKMDTELAESGSNFSVGQRQLVCLARAILRKNQILIIDEATANVDPRTDELIQKKIREKFAHCTVLTIAHRLNTIIDSDKIMVLDSGRLKEYDEPYVLLQNKESLFYKMVQQLGKAEAAALTETAKQVYFKRNYPHIGHTDHMVTNTSNGQPSTLTIFETAL
# Columns and labels:
# [1] = target: T1, ATP-binding cassette sub-family C member 4 (Homo sapiens, UniProt O15439); experiment: TP_TRANSPORTER: inhibition of alaninyl-d4TMP in the presence of Prostaglandin F2alpha at a concentration of 20uM in membrane vesicles from MRP4-expressing Sf9 cells; assay type: functional, cell membranes, Membrane vesicle; parameters: scale not given: the % may be the effect or the level left; settings: sf9, 20 µM
# T1 sequence (O15439 whole entry): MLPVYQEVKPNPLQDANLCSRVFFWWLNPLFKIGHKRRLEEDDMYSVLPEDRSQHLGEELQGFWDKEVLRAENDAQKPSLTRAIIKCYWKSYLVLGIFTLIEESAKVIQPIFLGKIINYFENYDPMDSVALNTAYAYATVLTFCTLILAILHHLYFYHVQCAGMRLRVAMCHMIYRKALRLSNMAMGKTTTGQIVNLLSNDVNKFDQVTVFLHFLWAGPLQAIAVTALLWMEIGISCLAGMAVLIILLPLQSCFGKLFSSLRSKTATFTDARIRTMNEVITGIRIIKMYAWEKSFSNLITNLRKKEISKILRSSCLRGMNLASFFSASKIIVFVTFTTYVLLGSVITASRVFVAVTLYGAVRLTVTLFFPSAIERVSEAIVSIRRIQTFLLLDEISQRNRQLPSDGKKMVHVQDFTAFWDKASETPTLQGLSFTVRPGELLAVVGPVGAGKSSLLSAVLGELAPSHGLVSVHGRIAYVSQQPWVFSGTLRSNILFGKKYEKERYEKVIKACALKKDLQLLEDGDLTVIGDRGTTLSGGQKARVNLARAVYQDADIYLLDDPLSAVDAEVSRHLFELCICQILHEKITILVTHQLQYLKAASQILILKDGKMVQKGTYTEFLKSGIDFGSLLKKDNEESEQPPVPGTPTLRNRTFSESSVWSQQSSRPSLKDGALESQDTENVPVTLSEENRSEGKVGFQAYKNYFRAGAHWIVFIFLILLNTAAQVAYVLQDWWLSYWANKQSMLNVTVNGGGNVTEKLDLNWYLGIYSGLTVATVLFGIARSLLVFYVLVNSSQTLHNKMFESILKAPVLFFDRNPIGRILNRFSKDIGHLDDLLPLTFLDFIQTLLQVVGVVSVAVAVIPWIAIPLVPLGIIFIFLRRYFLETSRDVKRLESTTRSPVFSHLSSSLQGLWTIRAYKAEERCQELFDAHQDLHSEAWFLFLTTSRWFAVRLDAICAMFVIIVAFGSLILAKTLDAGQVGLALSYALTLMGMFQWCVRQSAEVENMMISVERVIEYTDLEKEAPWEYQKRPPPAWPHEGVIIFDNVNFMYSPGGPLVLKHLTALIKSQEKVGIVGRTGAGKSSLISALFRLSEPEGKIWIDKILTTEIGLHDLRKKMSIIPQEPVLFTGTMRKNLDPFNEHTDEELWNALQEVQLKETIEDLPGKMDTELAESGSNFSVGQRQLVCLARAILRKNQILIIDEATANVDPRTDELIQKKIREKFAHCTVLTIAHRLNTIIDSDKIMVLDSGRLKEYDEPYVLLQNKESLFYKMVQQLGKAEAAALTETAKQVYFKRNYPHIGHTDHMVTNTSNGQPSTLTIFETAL
# [2] = target: T2, MRP5 (ATP-binding cassette sub-family C member 5) (Homo sapiens, UniProt O15440); experiment: TP_TRANSPORTER: inhibition of alaninyl-d4TMP by Prostaglandin F2alpha at a concentration of 20uM in membrane vesicle from MRP5-expressing HEK293 cells; assay type: functional, cell membranes; parameters: scale not given: the % may be the effect or the level left; settings: membrane vesicles from MRP5-expressing HEK293 cells, probe alaninyl-d4TMP, read-out: Activity
# T2 sequence (O15440 whole entry): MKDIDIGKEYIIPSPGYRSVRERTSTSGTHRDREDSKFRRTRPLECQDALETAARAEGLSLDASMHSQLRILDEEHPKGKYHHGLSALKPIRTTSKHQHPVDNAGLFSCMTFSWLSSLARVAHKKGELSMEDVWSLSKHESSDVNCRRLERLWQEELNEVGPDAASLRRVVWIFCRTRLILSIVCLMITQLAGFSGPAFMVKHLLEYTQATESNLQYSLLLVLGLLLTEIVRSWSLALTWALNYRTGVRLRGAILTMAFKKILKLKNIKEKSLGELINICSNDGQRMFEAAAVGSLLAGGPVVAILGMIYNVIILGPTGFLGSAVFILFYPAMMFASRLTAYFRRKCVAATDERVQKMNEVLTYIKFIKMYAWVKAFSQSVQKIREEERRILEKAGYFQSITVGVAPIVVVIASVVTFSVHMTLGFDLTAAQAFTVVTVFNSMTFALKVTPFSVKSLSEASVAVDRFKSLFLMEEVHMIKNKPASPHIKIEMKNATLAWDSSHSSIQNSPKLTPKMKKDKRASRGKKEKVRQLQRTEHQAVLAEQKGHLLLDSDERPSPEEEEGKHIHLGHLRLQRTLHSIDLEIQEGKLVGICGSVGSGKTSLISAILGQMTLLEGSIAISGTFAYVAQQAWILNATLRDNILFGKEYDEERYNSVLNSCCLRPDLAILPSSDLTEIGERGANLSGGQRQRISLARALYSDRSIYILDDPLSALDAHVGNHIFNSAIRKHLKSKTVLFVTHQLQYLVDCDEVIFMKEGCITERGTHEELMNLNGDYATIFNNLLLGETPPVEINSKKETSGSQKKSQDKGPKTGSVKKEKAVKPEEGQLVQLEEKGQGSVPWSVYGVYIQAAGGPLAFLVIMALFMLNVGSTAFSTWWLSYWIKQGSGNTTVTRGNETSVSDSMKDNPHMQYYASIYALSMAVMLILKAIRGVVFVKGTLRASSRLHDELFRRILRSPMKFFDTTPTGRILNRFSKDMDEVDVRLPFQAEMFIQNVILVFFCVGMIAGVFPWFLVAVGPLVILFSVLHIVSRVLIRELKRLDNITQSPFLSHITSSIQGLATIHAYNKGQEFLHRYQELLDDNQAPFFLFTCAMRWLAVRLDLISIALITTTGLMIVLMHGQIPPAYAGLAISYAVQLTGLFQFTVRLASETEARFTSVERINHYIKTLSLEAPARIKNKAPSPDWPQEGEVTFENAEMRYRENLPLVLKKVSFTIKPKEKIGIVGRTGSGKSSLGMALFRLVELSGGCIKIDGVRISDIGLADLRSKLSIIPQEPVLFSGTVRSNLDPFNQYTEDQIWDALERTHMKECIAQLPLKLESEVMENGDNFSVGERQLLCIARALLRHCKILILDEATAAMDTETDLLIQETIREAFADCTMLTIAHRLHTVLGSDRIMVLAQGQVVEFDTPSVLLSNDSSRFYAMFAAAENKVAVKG
# [3] = target: T3, MRP4 (ATP-binding cassette sub-family C member 4) (Homo sapiens, UniProt O15439); experiment: TP_TRANSPORTER: inhibition of alaninyl-d4TMP in the presence of Prostaglandin F1alpha at a concentration of 20uM in membrane vesicles from MRP4-expressing Sf9 cells; assay type: functional, cell membranes, Membrane vesicle; parameters: scale not given: the % may be the effect or the level left; settings: probe alaninyl-d4TMP, read-out: Activity
# T3 sequence (O15439 whole entry): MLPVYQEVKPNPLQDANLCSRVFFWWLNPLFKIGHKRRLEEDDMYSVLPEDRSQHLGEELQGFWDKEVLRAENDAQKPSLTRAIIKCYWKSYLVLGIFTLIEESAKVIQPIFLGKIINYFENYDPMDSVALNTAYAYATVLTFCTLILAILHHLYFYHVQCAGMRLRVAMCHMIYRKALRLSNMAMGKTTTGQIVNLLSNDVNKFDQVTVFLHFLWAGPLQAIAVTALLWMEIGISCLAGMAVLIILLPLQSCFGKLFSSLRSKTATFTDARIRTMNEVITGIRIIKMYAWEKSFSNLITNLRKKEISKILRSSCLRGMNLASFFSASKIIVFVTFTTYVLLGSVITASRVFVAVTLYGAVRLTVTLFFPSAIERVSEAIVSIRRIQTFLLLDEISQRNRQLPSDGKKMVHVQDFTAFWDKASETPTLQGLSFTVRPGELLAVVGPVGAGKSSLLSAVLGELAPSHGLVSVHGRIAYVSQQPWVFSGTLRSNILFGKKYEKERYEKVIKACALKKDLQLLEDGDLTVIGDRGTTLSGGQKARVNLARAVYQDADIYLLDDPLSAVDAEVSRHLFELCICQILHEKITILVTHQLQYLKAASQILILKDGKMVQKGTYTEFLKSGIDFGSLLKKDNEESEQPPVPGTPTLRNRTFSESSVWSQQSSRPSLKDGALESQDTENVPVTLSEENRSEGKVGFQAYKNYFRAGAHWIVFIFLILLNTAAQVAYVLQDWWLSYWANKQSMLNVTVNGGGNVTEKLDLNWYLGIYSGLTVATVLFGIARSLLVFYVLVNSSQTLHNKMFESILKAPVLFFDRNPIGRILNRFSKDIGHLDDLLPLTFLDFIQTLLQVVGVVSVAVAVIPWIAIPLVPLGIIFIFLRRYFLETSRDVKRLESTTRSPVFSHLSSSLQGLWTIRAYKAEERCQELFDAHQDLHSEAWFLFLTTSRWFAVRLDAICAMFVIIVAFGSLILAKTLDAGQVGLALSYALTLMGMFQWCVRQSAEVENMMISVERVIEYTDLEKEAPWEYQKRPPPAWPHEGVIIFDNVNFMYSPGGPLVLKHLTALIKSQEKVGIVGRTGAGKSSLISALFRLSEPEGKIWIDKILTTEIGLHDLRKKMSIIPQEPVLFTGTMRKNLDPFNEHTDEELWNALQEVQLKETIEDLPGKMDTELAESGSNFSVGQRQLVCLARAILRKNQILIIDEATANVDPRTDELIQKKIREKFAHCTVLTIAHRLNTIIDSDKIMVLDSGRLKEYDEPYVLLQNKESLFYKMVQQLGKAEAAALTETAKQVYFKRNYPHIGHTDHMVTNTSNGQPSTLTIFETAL
# [4] = target: T1, ATP-binding cassette sub-family C member 4; experiment: TP_TRANSPORTER: inhibition of E217betaG in the presence of Celecoxib at a concentration of 50uM in membrane vesicles from MRP4-expressing Sf9 cells; assay type: functional, cell membranes, Membrane vesicle; parameters: scale not given: the % may be the effect or the level left; settings: sf9, 50 µM
# [5] = target: T2, MRP5 (ATP-binding cassette sub-family C member 5); experiment: TP_TRANSPORTER: inhibition of alaninyl-d4TMP by Prostaglandin E1 at a concentration of 20uM in membrane vesicle from MRP5-expressing HEK293 cell; assay type: functional, cell membranes; parameters: scale not given: the % may be the effect or the level left; settings: membrane vesicles from MRP5-expressing HEK293 cells, probe alaninyl-d4TMP, read-out: Activity
# [6] = target: T2, MRP5 (ATP-binding cassette sub-family C member 5); experiment: TP_TRANSPORTER: inhibition of alaninyl-d4TMP by Prostaglandin A1 at a concentration of 20uM in membrane vesicle from MRP5-expressing HEK293 cells; assay type: functional, cell membranes; parameters: scale not given: the % may be the effect or the level left; settings: probe alaninyl-d4TMP, read-out: Activity
# [7] = target: Multidrug resistance associated protein (Homo sapiens) (UniProt Q96QA9); experiment: TP_TRANSPORTER: inhibition of alaninyl-d4TMP by Prostaglandin A1 at a concentration of 20uM in membrane vesicle from MRP3-expressing Sf9 cells; assay type: functional, cell membranes; parameters: scale not given: the % may be the effect or the level left
# Chain of Multidrug resistance associated protein (Homo sapiens) (Q96QA9 as listed by the source): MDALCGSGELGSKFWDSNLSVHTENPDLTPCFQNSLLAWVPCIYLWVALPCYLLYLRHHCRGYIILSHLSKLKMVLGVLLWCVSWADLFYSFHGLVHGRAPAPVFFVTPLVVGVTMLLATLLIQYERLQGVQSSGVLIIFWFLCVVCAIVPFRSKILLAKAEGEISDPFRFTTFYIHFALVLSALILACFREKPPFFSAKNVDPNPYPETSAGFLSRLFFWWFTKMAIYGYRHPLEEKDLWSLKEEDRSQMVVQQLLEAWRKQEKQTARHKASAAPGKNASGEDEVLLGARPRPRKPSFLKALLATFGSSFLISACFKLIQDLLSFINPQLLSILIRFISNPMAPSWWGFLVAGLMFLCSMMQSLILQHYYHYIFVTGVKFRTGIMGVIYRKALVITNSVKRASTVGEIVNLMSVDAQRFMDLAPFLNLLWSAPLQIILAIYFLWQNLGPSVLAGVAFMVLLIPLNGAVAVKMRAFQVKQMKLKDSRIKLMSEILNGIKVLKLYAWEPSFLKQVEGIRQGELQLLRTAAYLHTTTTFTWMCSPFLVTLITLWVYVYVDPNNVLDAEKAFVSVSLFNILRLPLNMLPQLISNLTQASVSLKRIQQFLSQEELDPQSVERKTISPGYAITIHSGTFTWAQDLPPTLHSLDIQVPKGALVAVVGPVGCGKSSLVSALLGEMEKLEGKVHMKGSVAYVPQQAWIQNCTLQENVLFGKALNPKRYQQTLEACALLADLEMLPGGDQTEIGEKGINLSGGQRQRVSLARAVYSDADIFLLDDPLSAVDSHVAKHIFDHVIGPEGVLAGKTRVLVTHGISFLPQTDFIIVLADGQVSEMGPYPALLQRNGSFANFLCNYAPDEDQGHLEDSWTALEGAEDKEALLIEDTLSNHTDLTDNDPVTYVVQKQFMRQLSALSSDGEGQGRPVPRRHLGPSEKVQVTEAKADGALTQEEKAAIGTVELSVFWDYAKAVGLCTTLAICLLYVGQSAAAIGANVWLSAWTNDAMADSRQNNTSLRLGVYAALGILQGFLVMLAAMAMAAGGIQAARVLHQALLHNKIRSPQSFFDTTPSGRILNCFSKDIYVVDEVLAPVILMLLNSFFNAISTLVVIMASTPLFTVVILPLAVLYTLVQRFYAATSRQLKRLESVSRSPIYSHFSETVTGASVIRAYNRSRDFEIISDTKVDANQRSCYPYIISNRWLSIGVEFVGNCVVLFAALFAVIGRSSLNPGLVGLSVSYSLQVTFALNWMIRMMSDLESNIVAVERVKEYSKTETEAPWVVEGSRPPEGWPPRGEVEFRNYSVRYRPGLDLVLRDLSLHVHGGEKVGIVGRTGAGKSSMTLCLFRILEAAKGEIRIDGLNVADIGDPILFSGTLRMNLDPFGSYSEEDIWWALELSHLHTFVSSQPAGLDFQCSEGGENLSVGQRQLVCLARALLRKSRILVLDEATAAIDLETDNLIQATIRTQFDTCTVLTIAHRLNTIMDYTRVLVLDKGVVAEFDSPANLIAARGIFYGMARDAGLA
# [8] = target: T1, ATP-binding cassette sub-family C member 4; experiment: TP_TRANSPORTER: inhibition of alaninyl-d4TMP in the presence of Prostaglandin A1 at a concentration of 20uM in membrane vesicles from MRP4-expressing Sf9 cells; assay type: functional, cell membranes, Membrane vesicle; parameters: scale not given: the % may be the effect or the level left; settings: sf9, 20 µM
# [9] = target: Multidrug resistance-associated protein 1 (Homo sapiens, UniProt P33527); experiment: TP_TRANSPORTER: inhibition of E217betaG in the presence of Diclofenac at a concentration of 100uM in membrane vesicles from MRP1-expressing Sf9 cells; assay type: functional, cell membranes, Membrane vesicle; parameters: scale not given: the % may be the effect or the level left; settings: sf9, 100 µM
# Chain of Multidrug resistance-associated protein 1 (P33527 whole entry): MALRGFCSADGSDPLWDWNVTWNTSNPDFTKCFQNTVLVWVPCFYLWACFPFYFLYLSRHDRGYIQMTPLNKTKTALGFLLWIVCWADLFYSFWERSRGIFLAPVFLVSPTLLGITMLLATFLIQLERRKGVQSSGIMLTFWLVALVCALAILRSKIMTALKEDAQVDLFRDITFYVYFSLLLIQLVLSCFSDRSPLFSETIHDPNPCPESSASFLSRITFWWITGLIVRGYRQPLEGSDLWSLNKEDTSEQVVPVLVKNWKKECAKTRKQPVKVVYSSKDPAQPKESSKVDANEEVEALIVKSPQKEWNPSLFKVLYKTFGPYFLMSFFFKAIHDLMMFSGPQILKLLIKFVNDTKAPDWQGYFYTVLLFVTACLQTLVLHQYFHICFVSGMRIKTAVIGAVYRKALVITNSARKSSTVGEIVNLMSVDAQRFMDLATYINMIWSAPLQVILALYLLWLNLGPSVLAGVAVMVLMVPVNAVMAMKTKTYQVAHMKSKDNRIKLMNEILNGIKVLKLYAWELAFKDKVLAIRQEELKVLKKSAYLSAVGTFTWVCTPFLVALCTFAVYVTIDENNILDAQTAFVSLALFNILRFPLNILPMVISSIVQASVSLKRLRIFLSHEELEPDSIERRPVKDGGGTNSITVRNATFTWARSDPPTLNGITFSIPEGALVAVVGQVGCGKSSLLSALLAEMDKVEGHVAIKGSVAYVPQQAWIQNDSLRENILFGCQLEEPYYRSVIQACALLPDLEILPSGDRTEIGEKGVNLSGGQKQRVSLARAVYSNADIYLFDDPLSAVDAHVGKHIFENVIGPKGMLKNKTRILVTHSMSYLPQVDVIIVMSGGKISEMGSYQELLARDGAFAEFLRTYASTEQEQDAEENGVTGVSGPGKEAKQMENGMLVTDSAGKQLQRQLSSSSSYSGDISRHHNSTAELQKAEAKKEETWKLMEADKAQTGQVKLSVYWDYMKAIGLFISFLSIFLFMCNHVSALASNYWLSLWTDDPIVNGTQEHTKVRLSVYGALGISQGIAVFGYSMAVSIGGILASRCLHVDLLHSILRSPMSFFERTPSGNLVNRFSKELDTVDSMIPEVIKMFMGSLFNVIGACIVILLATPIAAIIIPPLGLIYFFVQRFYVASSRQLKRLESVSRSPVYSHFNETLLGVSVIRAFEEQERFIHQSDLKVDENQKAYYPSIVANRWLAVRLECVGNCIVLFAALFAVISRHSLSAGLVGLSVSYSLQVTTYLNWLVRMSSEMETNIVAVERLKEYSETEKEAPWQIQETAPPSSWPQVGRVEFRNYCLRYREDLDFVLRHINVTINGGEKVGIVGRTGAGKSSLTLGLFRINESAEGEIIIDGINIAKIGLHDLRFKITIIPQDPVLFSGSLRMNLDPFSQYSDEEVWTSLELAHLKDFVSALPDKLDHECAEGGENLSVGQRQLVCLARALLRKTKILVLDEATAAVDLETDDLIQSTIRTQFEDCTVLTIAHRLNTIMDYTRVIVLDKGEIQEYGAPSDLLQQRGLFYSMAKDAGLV
# [10] = target: T3, MRP4 (ATP-binding cassette sub-family C member 4); experiment: TP_TRANSPORTER: inhibition of E217betaG in the presence of Diclofenac at a concentration of 100uM in membrane vesicles from MRP4-expressing Sf9 cells; assay type: functional, cell membranes, Membrane vesicle; parameters: scale not given: the % may be the effect or the level left; settings: probe E217betaG, read-out: Activity
# [11] = target: T1, ATP-binding cassette sub-family C member 4; experiment: TP_TRANSPORTER: inhibition of E217betaG in the presence of Ibuprofen at a concentration of 200uM in membrane vesicles from MRP4-expressing Sf9 cells; assay type: functional, cell membranes, Membrane vesicle; parameters: scale not given: the % may be the effect or the level left; settings: sf9, 200 µM
# [12] = target: MRP1 (Multidrug resistance-associated protein 1) (Homo sapiens, UniProt P33527); experiment: TP_TRANSPORTER: inhibition of E217betaG in the presence of Ibuprofen at a concentration of 200uM in membrane vesicles from MRP1-expressing Sf9 cells; assay type: functional, cell membranes, Membrane vesicle; parameters: scale not given: the % may be the effect or the level left; settings: probe E217betaG, read-out: Activity
# Chain of MRP1 (Multidrug resistance-associated protein 1) (P33527 whole entry): as above
# [13] = substrate: CCCCC[C@H](O)/C=C/[C@H]1[C@H](O)CC(=O)[C@@H]1C/C=C\CCCC(=O)O; experiment: (§1) TP_TRANSPORTER: uptake (vesicle) in membrane vesicles from MRP4-expressing Sf9 cells; assay type: functional, cell membranes
# [14] = substrate: CCCCC[C@H](O)/C=C/[C@H]1[C@H](O)CC(=O)[C@@H]1CCCCCCC(=O)O; experiment: as §1; assay type: functional, cell membranes
molecule,measurement,setting,value
CCCCC[C@H](O)/C=C/[C@@H]1[C@@H](C/C=C\CCCC(=O)O)[C@@H](O)C[C@H]1O [DINOPROST],Activity,[1],15%
same,activity at 20 µM,[2],63%
CCCCC[C@H](O)/C=C/[C@@H]1[C@@H](CCCCCCC(=O)O)[C@@H](O)C[C@H]1O [PROSTAGLANDIN F1ALPHA],activity at 20 µM,[3],29%
Cc1ccc(-c2cc(C(F)(F)F)nn2-c2ccc(S(N)(=O)=O)cc2)cc1 [CELECOXIB],Activity,[4],78%
CCCCC[C@H](O)/C=C/[C@H]1[C@H](O)CC(=O)[C@@H]1CCCCCCC(=O)O [ALPROSTADIL],activity at 20 µM,[5],69%
CCCCC[C@H](O)/C=C/[C@H]1C=CC(=O)[C@@H]1CCCCCCC(=O)O [PROSTAGLANDIN A1],activity at 20 µM,[6],51%
same,Activity,[7],76%
same,Activity,[8],2%
O=C(O)Cc1ccccc1Nc1c(Cl)cccc1Cl [DICLOFENAC],Activity,[9],82%
same,activity at 100 µM,[10],61%
CC(C)Cc1ccc(C(C)C(=O)O)cc1 (centres undefined) [IBUPROFEN],Activity,[11],31%
same,activity at 200 µM,[12],79%
B1,Km,[13],3.4 µM
same,Km,[14],2.1 µM

# Reference: ChEMBL document CHEMBL2073947, “The human multidrug resistance protein MRP4 functions as a prostaglandin efflux transporter and is inhibited by nonsteroidal antiinflammatory drugs” (Proc Natl Acad Sci U S A, 2003)
